The subject of data set [1] is Human adenovirus 5. As to the kind of experiment: Antiviral activity against Human adenovirus 5 infected in 293beta5 cells assessed as inhibition of plaque formation at 10 uM incubated for 7 days by GFP reporter gene assay relative to control. It is filed as functional. Particulars: Human mastadenovirus C, HEK293, 168 h, time 7 day.
A short description of data set [2]: Cytotoxicity against human A549 cells assessed as reduction in cell viability incubated for 48 hrs by alamarBlue assay. The data set is classed as cell-based. Background: Alamar Blue is a resazurin reagent that responds to reducing activity.
Data set [3] deals with Human adenovirus 5. As to the kind of experiment: Antiviral activity against GFP-fused Human adenovirus 5 infected in 293beta5 cells assessed as inhibition of plaque formation incubated for 7 days by GFP reporter gene assay. The data set is classed as functional, organism-based. Particulars: Human mastadenovirus C, HEK293, 168 h. On the technique in general: Reporter assays use an easily measured gene product as a stand-in for the process of interest.

The nature of data set [4]: Selectivity index, ratio of CC50 for cytotoxicity against human A549 cells assessed as reduction in cell viability incubated for 48 hrs by alamarBlue assay to IC50 for antiviral activity against Human adenovirus 5 infected in 293beta5 cells assessed as inhibition of plaque formation incubated for 7 days by GFP reporter gene assay. It is filed as toxicity, cell-based. Particulars: read-out: Ratio CC50/IC50.

Each structure is given as a SMILES string.

A word on the inhibition: it is the drop in the measured response relative to a control, in per cent. The term CC50 denotes the concentration giving 50% cytotoxicity. In general, IC50 refers to the concentration at which inhibition is half-maximal.

For the molecule `CC(C)CNc1ccc(NC(=O)c2cc(Cl)ccc2O)c(Cl)c1`, the inhibition at 10 µM in the data set on Human adenovirus 5 [1] was 100%. Further, in data set [2], the CC50 at 48 h amounted to 60 µM. Also, the IC50 with Human adenovirus 5 [3] stood at 0.89 µM. Further, the selectivity ratio at 48 h in data set [4] was 67.4.

In the case of `CCCCCCCCC(C)Nc1ccc(NC(=O)c2cc(Cl)ccc2O)c(Cl)c1` (stereo not drawn), the inhibition at 10 µM with Human adenovirus 5 [1] was found to be 100%. The CC50 at 48 h in data set [2] came to 21.9 µM. For the same molecule, the IC50 in the data set with Human adenovirus 5 [3] amounted to 1.21 µM. For the same molecule, the selectivity ratio at 48 h in data set [4] was found to be 18.1.

As to `O=C(Nc1ccc(NC2CCCC2)cc1F)c1cc(Cl)ccc1O`, the CC50 at 48 h in data set [2] turned out to be 51 µM. For the same molecule, in the data set on Human adenovirus 5 [3], the IC50 stood at 1.04 µM. The selectivity ratio at 48 h in data set [4] is 49.1.

Regarding `O=C(Nc1ccc(NCc2cc(Cl)cc(Cl)c2)cc1Cl)c1cc(Cl)ccc1O`, in the data set on Human adenovirus 5 [1], the inhibition at 10 µM was 100%. For the same molecule, in data set [2], the CC50 at 48 h is 13.3 µM. The 50% inhibitory concentration (IC50) in the data set with Human adenovirus 5 [3] is 1.43 µM. Also, the selectivity ratio at 48 h in data set [4] was 9.3.

As for `O=C(Nc1cc(NC2CCCC2)ccc1F)c1cc(Cl)ccc1O`, the CC50 at 48 h in data set [2] was 44 µM. In the data set with Human adenovirus 5 [3], the IC50 came to 1.34 µM. In addition, the selectivity ratio at 48 h in data set [4] is 32.8.

For the molecule `O=C(Nc1ccc(NCc2ccncc2)cc1Cl)c1cc(Cl)ccc1O`, the inhibition at 10 µM in the data set with Human adenovirus 5 [1] was found to be 100%. Also, the CC50 at 48 h in data set [2] amounted to 65.3 µM. The IC50 in the data set with Human adenovirus 5 [3] was 2.66 µM. Also, in data set [4], the selectivity ratio at 48 h was found to be 24.6.

Consider `O=C(Nc1ccc(NCc2cc(F)cc(C(F)(F)F)c2)cc1Cl)c1cc(Cl)ccc1O`, for which, in the data set on Human adenovirus 5 [1], the inhibition at 10 µM came to 100%. For the same molecule, the 50% cytotoxic concentration (CC50) at 48 h in data set [2] is 30.9 µM. Moreover, the IC50 with Human adenovirus 5 [3] worked out at 1.16 µM. For the same molecule, the selectivity ratio at 48 h in data set [4] turned out to be 26.7.

For `CS(=O)(=O)Nc1ccc(Cl)cc1C(=O)Nc1ccc(NC2CCCC2)cc1Cl`, the cytotoxic concentration (CC50) at 48 h in data set [2] came out at 35.4 µM. The IC50 in the data set on Human adenovirus 5 [3] was determined as 1.72 µM. For the same molecule, in data set [4], the selectivity ratio at 48 h amounted to 20.6.

Turning to `O=C(NCc1ccc(NC2CCCC2)cc1Cl)c1cc(Cl)ccc1O`, the half-maximal cytotoxic concentration (CC50) at 48 h in data set [2] is 28.3 µM. In the data set with Human adenovirus 5 [3], the half-inhibitory concentration (IC50) was 7.97 µM. Also, the selectivity ratio at 48 h in data set [4] was 3.6.

As for `CN1CCC(CNc2ccc(NC(=O)c3cc(Cl)ccc3O)c(Cl)c2)CC1`, the inhibition at 10 µM in the data set on Human adenovirus 5 [1] is 0%.

For `CC(=O)Nc1ccc(NC(=O)c2cc(Cl)ccc2O)c(Cl)c1`, the inhibition at 10 µM in the data set with Human adenovirus 5 [1] turned out to be 0%.

On to `O=C(Nc1ccc(NCc2cccc(C(F)(F)F)c2)cc1Cl)c1cc(Cl)ccc1O`, for which, in the data set on Human adenovirus 5 [1], the inhibition at 10 µM was 100%. The CC50 at 48 h in data set [2] stood at 13.3 µM. Moreover, the IC50 with Human adenovirus 5 [3] came to 0.88 µM. In addition, the selectivity ratio at 48 h in data set [4] is 15.2.

Consider `CCNc1ccc(NC(=O)c2cc(Cl)ccc2O)c(Cl)c1`, for which, in the data set on Human adenovirus 5 [1], the inhibition at 10 µM worked out at 100%. Also, the CC50 at 48 h in data set [2] was 30.2 µM. The IC50 with Human adenovirus 5 [3] stood at 2.18 µM. Also, the selectivity ratio at 48 h in data set [4] was found to be 13.9.

Take `O=C(Nc1ccc(NCc2ccccc2)cc1Cl)c1cc(Cl)ccc1O`: in the data set with Human adenovirus 5 [1], the inhibition at 10 µM turned out to be 100%. Further, the CC50 at 48 h in data set [2] is 19.7 µM. The IC50 in the data set with Human adenovirus 5 [3] turned out to be 2.52 µM. Also, the selectivity ratio at 48 h in data set [4] came out at 7.8.

Regarding `O=C(Nc1ccc(NCc2ccc(Br)cc2)cc1Cl)c1cc(Cl)ccc1O`, the inhibition at 10 µM with Human adenovirus 5 [1] was determined as 100%. For the same molecule, the CC50 at 48 h in data set [2] is 40.9 µM. Further, the IC50 in the data set on Human adenovirus 5 [3] stood at 1.84 µM. The selectivity ratio at 48 h in data set [4] came out at 22.2.

`O=C(Nc1ccc(NC2CCCCC2)cc1Cl)c1cc(Cl)ccc1O`: the CC50 at 48 h in data set [2] was 68.3 µM. Further, the IC50 with Human adenovirus 5 [3] stood at 1.34 µM. In addition, in data set [4], the selectivity ratio at 48 h was 51.1.

In the case of `O=C(Nc1ccc(NC2CCCC2)c(Cl)c1)c1cc(Cl)ccc1O`, the inhibition at 10 µM in the data set with Human adenovirus 5 [1] is 100%. The CC50 at 48 h in data set [2] was 16.9 µM. For the same molecule, in the data set with Human adenovirus 5 [3], the IC50 is 0.84 µM. Moreover, the selectivity ratio at 48 h in data set [4] was determined as 20.1.

On to `O=C(Nc1ccc(NCc2cccc(Br)n2)cc1Cl)c1cc(Cl)ccc1O`, for which the inhibition at 10 µM in the data set with Human adenovirus 5 [1] is 100%. Moreover, the CC50 at 48 h in data set [2] amounted to 92.3 µM. Besides, in the data set with Human adenovirus 5 [3], the IC50 turned out to be 2.26 µM. Further, the selectivity ratio at 48 h in data set [4] came to 40.8.

Consider `O=C(Nc1ccc(NCCCO)cc1Cl)c1cc(Cl)ccc1O`, for which the CC50 at 48 h in data set [2] was 106 µM.

For `O=C(Nc1ccc(NCc2cnccc2Cl)cc1Cl)c1cc(Cl)ccc1O`, the inhibition at 10 µM in the data set on Human adenovirus 5 [1] was found to be 100%. For the same molecule, the CC50 at 48 h in data set [2] amounted to 126 µM. Also, in the data set on Human adenovirus 5 [3], the IC50 was 1.66 µM. For the same molecule, in data set [4], the selectivity ratio at 48 h was 75.7.

In the case of `O=C(Nc1ccc(NCC2CCCC2)cc1Cl)c1cc(Cl)ccc1O`, the inhibition at 10 µM with Human adenovirus 5 [1] was 100%. The CC50 at 48 h in data set [2] amounted to 21.5 µM. The IC50 in the data set on Human adenovirus 5 [3] was 1.24 µM. The selectivity ratio at 48 h in data set [4] was determined as 17.3.

`O=C(Nc1ccc(NCc2cc(F)cc(Cl)c2)cc1Cl)c1cc(Cl)ccc1O`: in data set [2], the CC50 at 48 h was found to be 11.1 µM. In addition, the IC50 in the data set with Human adenovirus 5 [3] was 1.28 µM. Also, the selectivity ratio at 48 h in data set [4] is 8.7.

Regarding `O=C(Nc1ccc(NCc2ccc(F)cc2)cc1Cl)c1cc(Cl)ccc1O`, the inhibition at 10 µM with Human adenovirus 5 [1] turned out to be 100%. Further, the CC50 at 48 h in data set [2] worked out at 54.4 µM. The IC50 in the data set with Human adenovirus 5 [3] is 3.4 µM. Further, the selectivity ratio at 48 h in data set [4] amounted to 16.

As to `Nc1ccc(NC(=O)c2cc(Cl)ccc2O)c(Cl)c1`, in the data set on Human adenovirus 5 [1], the inhibition at 10 µM came out at 0%.

With `Cc1ccc(O)c(C(=O)Nc2ccc(NC3CCCC3)cc2Cl)c1`, the CC50 at 48 h in data set [2] turned out to be 30.9 µM. Further, the IC50 in the data set with Human adenovirus 5 [3] was 2.72 µM. The selectivity ratio at 48 h in data set [4] came to 11.4.

Regarding `O=C(Nc1ccc(NCc2ccc(Br)s2)cc1Cl)c1cc(Cl)ccc1O`, the inhibition at 10 µM in the data set with Human adenovirus 5 [1] came out at 100%. Also, the CC50 at 48 h in data set [2] amounted to 20.7 µM. Also, in the data set on Human adenovirus 5 [3], the half-maximal inhibitory concentration (IC50) is 2.58 µM. Further, the selectivity ratio at 48 h in data set [4] was 8.

Regarding `CCN(CC)c1ccc(NC(=O)c2cc(Cl)ccc2O)c(Cl)c1`, the inhibition at 10 µM in the data set with Human adenovirus 5 [1] came to 100%. The CC50 at 48 h in data set [2] was found to be 55.5 µM. The IC50 in the data set on Human adenovirus 5 [3] is 0.86 µM. Also, in data set [4], the selectivity ratio at 48 h was 64.5.

With `O=C(Nc1ccc(NCc2ccc(C(F)(F)F)cc2)cc1Cl)c1cc(Cl)ccc1O`, in data set [2], the CC50 at 48 h amounted to 62.7 µM. Also, the IC50 in the data set on Human adenovirus 5 [3] stood at 1.43 µM. The selectivity ratio at 48 h in data set [4] came to 43.8.

For the molecule `O=C(Nc1ccc(NC2CCCC2)cc1)c1cc(Cl)ccc1O`, the CC50 at 48 h in data set [2] turned out to be 10 µM. The IC50 in the data set on Human adenovirus 5 [3] worked out at 2.6 µM. Also, the selectivity ratio at 48 h in data set [4] amounted to 3.9.

In the case of `O=C(Nc1cc(F)cc(C(F)(F)F)c1)c1cc(Cl)ccc1O`, the IC50 in the data set with Human adenovirus 5 [3] amounted to 0.18 µM. The selectivity ratio at 48 h in data set [4] worked out at 667.

As for `CN1CCC(Oc2ccc(Cl)cc2C(=O)Nc2ccc(NC3CCCC3)cc2Cl)CC1`, the inhibition at 10 µM with Human adenovirus 5 [1] worked out at 0%.

With `CC(C)(C)OC(=O)N1CCC(Nc2ccc(NC(=O)c3cc(Cl)ccc3O)c(Cl)c2)CC1`, the CC50 at 48 h in data set [2] was found to be 100 µM. For the same molecule, the IC50 in the data set on Human adenovirus 5 [3] came out at 1.21 µM. The selectivity ratio at 48 h in data set [4] stood at 82.6.

Consider `CC(C)[C@H](NC(=O)c1cc(Cl)ccc1O)C(=O)Nc1ccc(NC2CCCC2)cc1Cl`, for which the CC50 at 48 h in data set [2] was found to be 111 µM. The IC50 with Human adenovirus 5 [3] is 3.83 µM. In addition, in data set [4], the selectivity ratio at 48 h came to 28.9.

As to `O=C(Nc1ccc(NCc2cc(Cl)cc(C(F)(F)F)c2)cc1Cl)c1cc(Cl)ccc1O`, in data set [2], the CC50 at 48 h turned out to be 30.9 µM. Moreover, in the data set on Human adenovirus 5 [3], the IC50 turned out to be 1.79 µM. Also, the selectivity ratio at 48 h in data set [4] is 17.3.

As for `CC(C)[C@H](NC(=O)c1cc(Cl)ccc1O)C(=O)Nc1ccc([N+](=O)[O-])cc1Cl`, the IC50 with Human adenovirus 5 [3] was found to be 0.45 µM. For the same molecule, the selectivity ratio at 48 h in data set [4] was determined as 444.

With `O=C(Nc1ccc(NCc2ccc3cn[nH]c3c2)cc1Cl)c1cc(Cl)ccc1O`, the CC50 at 48 h in data set [2] worked out at 45.3 µM. Further, the IC50 in the data set with Human adenovirus 5 [3] was found to be 4.65 µM. For the same molecule, in data set [4], the selectivity ratio at 48 h amounted to 9.7.

Consider `O=C(Nc1ccc(N(CCCO)CCCO)cc1Cl)c1cc(Cl)ccc1O`, for which the CC50 at 48 h in data set [2] came out at 114 µM.

(Values after ChEMBL document CHEMBL4699598, “Discovery of Novel Substituted N-(4-Amino-2-chlorophenyl)-5-chloro-2-hydroxybenzamide Analogues as Potent Human Adenovirus Inhibitors” (J Med Chem, 2020).)
